Reference: ChEMBL document CHEMBL1201862, “PubChem BioAssay data set” (2004)
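Each compound was tested at five concentrations against cells in 96-well plates for 48 hours. Abbreviation: GI50, concentration required for 50% inhibition of growth.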 Calls of active or inactive are those of the source. Rule as the data show it: active = GI50 up to about 1.1 µM and inactive = higher.

What was measured:
Test in all cases: NCI tumour cell line growth inhibition, 48 h
[1] = system: CAKI-1
[2] = system: IGROV-1
[3] = system: A549
[4] = system: SN12C
[5] = system: OVCAR-3
[6] = system: SF-268
[7] = system: COLO 205
[8] = system: SNB-19
[9] = system: ACHN
[10] = system: KM12
[11] = system: PC-3
[12] = system: UACC-257
[13] = system: RXF 393
[14] = system: UACC-62
[15] = system: A498
[16] = system: MOLT-4
[17] = system: RPMI-8226
[18] = system: MDA-MB-435
[19] = system: MDA-N

Compound	GI50 [1]	GI50 [2]	GI50 [3]	GI50 [4]	GI50 [5]	GI50 [6]	GI50 [7]	GI50 [8]	GI50 [9]	GI50 [10]	GI50 [11]	GI50 [12]	GI50 [13]	GI50 [14]	GI50 [15]	GI50 [16]	GI50 [17]	GI50 [18]	GI50 [19]
N=C(N)NNC(=O)C(=O)O	> 100 µM (inactive)	> 100 µM (inactive)	> 100 µM (inactive)	> 100 µM (inactive)	> 100 µM (inactive)	> 100 µM (inactive)	> 100 µM (inactive)	> 100 µM (inactive)	> 100 µM (inactive)	> 100 µM (inactive)	> 100 µM (inactive)	> 100 µM (inactive)	> 100 µM (inactive)	> 100 µM (inactive)	> 100 µM (inactive)	> 100 µM (inactive)	> 100 µM (inactive)	> 100 µM (inactive)	> 100 µM (inactive)
COc1cc(OC)c2c(O)c3c(cc2c1)CC(C)(C)CC3=O	> 100 µM (inactive)	> 100 µM (inactive)	> 100 µM (inactive)	> 100 µM (inactive)	> 74.1 µM (inactive)	> 100 µM (inactive)	> 100 µM (inactive)	> 100 µM (inactive)	> 100 µM (inactive)	> 92.3 µM (inactive)	> 100 µM (inactive)	> 100 µM (inactive)	> 100 µM (inactive)	90.6 µM (inactive)	> 100 µM (inactive)	> 76.6 µM (inactive)	> 100 µM (inactive)	19.4 µM (inactive)	> 64 µM (inactive)
[N-]=[N+]=Nc1ccc2c(c1)Sc1ccccc1N2CCCCCl	> 100 µM (inactive)	> 100 µM (inactive)	35.2 µM (inactive)	> 100 µM (inactive)	82.2 µM (inactive)	41.9 µM (inactive)	18.7 µM (inactive)	> 100 µM (inactive)	> 100 µM (inactive)	53.5 µM (inactive)	41.3 µM (inactive)	71.9 µM (inactive)	78.9 µM (inactive)	99.8 µM (inactive)	> 100 µM (inactive)	22 µM (inactive)	23.3 µM (inactive)	51.4 µM (inactive)	48.4 µM (inactive)
CC(=O)OCC1OC(n2c(Br)nc3c2c(=O)n(C)c(=O)n3C)C(OC(C)=O)C1OC(C)=O (stereo not drawn)	> 100 µM (inactive)	> 100 µM (inactive)	> 100 µM (inactive)	79.4 µM (inactive)	48.1 µM (inactive)	62.7 µM (inactive)	75 µM (inactive)	74.8 µM (inactive)	48.3 µM (inactive)	64.9 µM (inactive)	45.8 µM (inactive)	50.2 µM (inactive)	> 100 µM (inactive)	67.6 µM (inactive)	43 µM (inactive)	> 100 µM (inactive)	27.9 µM (inactive)	29.4 µM (inactive)	33.6 µM (inactive)
[N-]=[N+]=C(C(=O)OCC#CCOC(=O)C(=[N+]=[N-])S(=O)(=O)c1ccccc1)S(=O)(=O)c1ccccc1	> 10 µM (inactive)	> 10 µM (inactive)	> 10 µM (inactive)	> 10 µM (inactive)	> 10 µM (inactive)	> 10 µM (inactive)	> 10 µM (inactive)	> 10 µM (inactive)	> 10 µM (inactive)	> 10 µM (inactive)	> 10 µM (inactive)	> 10 µM (inactive)	> 10 µM (inactive)	> 10 µM (inactive)	> 10 µM (inactive)	> 10 µM (inactive)	> 10 µM (inactive)	> 10 µM (inactive)	> 10 µM (inactive)
N=c1oc2c(Br)cc(Br)cc2cc1C(=O)Nc1ccccn1	> 100 µM (inactive)	> 100 µM (inactive)	65.3 µM (inactive)	> 100 µM (inactive)	32.3 µM (inactive)	78.9 µM (inactive)	> 100 µM (inactive)	> 100 µM (inactive)	70.5 µM (inactive)	56.5 µM (inactive)	38.5 µM (inactive)	> 100 µM (inactive)	75.3 µM (inactive)	74.8 µM (inactive)	> 100 µM (inactive)	> 100 µM (inactive)	87.1 µM (inactive)	62.1 µM (inactive)	> 100 µM (inactive)
N#CS/C(C(Cl)=C(Cl)Cl)=C(/Cl)[N+](=O)[O-]	0.977 µM (active)	2.32 µM (inactive)	21 µM (inactive)	2.21 µM (inactive)	1.53 µM (inactive)	3.17 µM (inactive)	1.49 µM (inactive)	20.2 µM (inactive)	1.64 µM (inactive)	9.64 µM (inactive)	5.33 µM (inactive)	1.75 µM (inactive)	1.4 µM (inactive)	4.26 µM (inactive)	17.1 µM (inactive)	0.6 µM (active)	0.9 µM (active)	1.66 µM (inactive)	1.8 µM (inactive)
